The values below come from article PMC9738620, “Computer- and NMR-Aided Design of Small-Molecule Inhibitors of the Hub1 Protein” (Molecules, 2022).

Ends that are not written are not given here.

Assay [1] has as its target T1, Hub1 (Saccharomyces cerevisiae, UniProt Q6Q546). The assay can be described thus: biochemical. On the procedure:
Hub1 buffered in 20 mM HEPES, pH 7.5, 100 mM NaCl, 0.05% Tween-20 was labeled using His-Tag Labelling Kit RED-tris-NTA 2nd generation (MO-L018, NanoTemper, Munich, Germany), according to the manufacturer’s protocol. […] The final concentration of Hub1 was 50 nM. All measurements were calculated on a Monolith NT.115 instrument (NanoTemper, Munich, Germany) using the standard capillaries at the excitation power of 60% and the medium MST power in duplicates. The results were analyzed in GraphPad Prism software (GraphPad Prism version 8.0.0 for Windows, GraphPad Software, San Diego, CA, USA).

Assay [2] addresses T1, Hub1. The method, then:
The NMR measurements were carried out at 300 K on an ultrashielded 600 MHz Bruker AVANCE 3 (Bruker Corporation, Billerica, MA, USA) spectrometer equipped with a liquid nitrogen cryogenic system. Uniform ^15N isotope labeling was achieved by the expression of the protein in the M9 minimal media containing ^15NH4Cl as the sole nitrogen source. The NMR buffer for ^15N-labeled protein was PBS pH 7.4 with 5 mM DTT (dithiothreitol). To provide a lock signal, 10% (v/v) of D2O was added to the samples. Water suppression was carried out using the WATERGATE sequence. Stock solutions of the inhibitors used for titration were prepared in DMSO-d6. The binding of small molecule fragments towards Hub1 was measured with the 2D SOFAST-HMQC spectra of the ^15N-labeled Hub1 recombinant protein in 3-mm NMR capillaries. For the preliminary screening, the mixture of three compounds was added in a molar ratio compound to protein 1:10. Then the ^1H and SOFAST-HMQC spectrum was recorded and compared with the reference spectrum of the protein Hub1 titrated with a suitable amount of DMSO. When any activity occurred, all compounds which were in the mixture were tested one by one. The individual spectra were recorded in 10-fold excess of the inhibitor either by ^1H NMR or SOFAST-HMQC. […] The spectra were processed with TopSpin 3.2 software (Bruker Corporation, Billerica, MA, USA).

The next assay deals with T2, Snu66 peptide-14 (Saccharomyces cerevisiae).
T2 chain: TNEIREKLGM
Kind of assay: MST.

T1 sequence (Q6Q546 whole entry): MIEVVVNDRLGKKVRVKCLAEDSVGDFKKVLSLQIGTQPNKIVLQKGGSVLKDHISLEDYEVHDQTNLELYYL

Turning to IREKLGM [Peptide-11], the “binding to Hub1 by MST (in words)” value at Hub1 [1] (MST, labeled Hub1 50 nM, peptide […] to 250 µM, pH 7.5, duplicates) is listed as “no significant binding events”. Besides, at Hub1 [2] (1H NMR, Hub1:peptide ratio 1:1 to 1:10, 300 K), the “changes in chemical shifts (in words)” value was “changes in chemical shifts in the aliphatic (δ = 0.04 ppm) and aromatic (δ = 6.5 ppm) regions”. For the same molecule, on Hub1 [2] (1H NMR, Hub1:peptide ratio 1:1 to 1:10, 300 K, aliphatic region), the “chemical shift changes, aliphatic region (δ)” value is reported as 0.04 ppm. Besides, the “buffer pH after titration” value on Hub1 [2] (after titration of Hub1 with peptide) was determined as 6.7.

With TNEIREKLGM [Peptide-14], binding at Hub1 [1] was put at a Kd of 14 ± 8.3 µM.

B1: Hub1 1-73 (protein)
chain: MIEVVCNDRLGKKVRVKCNTDDTIGDLKKLIAAQTGTRWNKIVLKKWYTIFKDHVSLGDYEIHDGMNLELYYQ
As to B1, the Kd (usually the free concentration of one partner at which half of the binding sites on the other are occupied at equilibrium, for simple one-to-one binding) in the assay with Snu66 peptide-14 was 14 µM.
